Two molecules from article PMC10025480 (Frontiers in Pharmacology, 2023) can be followed below.

Series [1] addresses T1, hTMEM16Aabc (Homo sapiens, UniProt Q5XXA6, DEL476-501).
T1 construct: expressed in transfected cells
T1 sequence (Q5XXA6 with tags, fused parts or gaps isoform Q5XXA6-5 DEL539-564): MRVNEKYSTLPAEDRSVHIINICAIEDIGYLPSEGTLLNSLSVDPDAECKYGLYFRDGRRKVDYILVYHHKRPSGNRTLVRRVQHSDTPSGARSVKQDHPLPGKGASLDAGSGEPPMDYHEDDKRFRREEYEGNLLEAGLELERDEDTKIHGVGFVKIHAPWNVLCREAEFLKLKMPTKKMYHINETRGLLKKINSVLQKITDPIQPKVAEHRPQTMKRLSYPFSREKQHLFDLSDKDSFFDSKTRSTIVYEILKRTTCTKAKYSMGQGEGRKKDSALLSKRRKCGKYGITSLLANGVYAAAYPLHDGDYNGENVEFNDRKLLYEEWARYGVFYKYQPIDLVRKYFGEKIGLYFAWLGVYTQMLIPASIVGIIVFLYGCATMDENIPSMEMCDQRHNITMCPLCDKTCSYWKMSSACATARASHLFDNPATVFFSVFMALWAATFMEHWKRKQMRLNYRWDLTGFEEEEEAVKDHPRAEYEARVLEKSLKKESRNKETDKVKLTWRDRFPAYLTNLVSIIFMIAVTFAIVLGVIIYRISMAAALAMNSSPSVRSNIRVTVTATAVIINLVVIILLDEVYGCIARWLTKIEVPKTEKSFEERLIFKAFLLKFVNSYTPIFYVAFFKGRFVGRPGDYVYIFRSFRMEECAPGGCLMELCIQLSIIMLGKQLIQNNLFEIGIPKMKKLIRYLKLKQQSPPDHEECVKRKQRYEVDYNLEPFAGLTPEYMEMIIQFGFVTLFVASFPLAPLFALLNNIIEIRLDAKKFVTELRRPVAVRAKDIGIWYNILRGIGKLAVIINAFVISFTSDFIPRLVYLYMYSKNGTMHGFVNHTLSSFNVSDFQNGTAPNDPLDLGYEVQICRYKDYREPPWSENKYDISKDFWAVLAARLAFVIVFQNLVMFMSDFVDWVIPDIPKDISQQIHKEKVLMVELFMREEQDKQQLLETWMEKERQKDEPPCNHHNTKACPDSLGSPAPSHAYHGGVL
The series is described as follows: Whole-cell patch clamp (QPatch), FRT-hTMEM16Aabc cells. It is filed as cell-based. As to conditions: for IC50: [Ca2+]i clamped at 415 nM. The protocol: Current rectification ratios were calculated by dividing the magnitude of the outward current at +90 mV by the magnitude of the inward current at −90 mV.
A general note: Patch clamp records ionic current or voltage across a cell membrane.

Series [2] addresses T1, hTMEM16Aabc. The series is described as follows: Short-circuit current (ISC), FRT-TMEM16Aabc monolayers in Ussing chambers. The class given is cell-based. As to conditions: for UTP-stimulated integrated ISC response (AUC) / UTP-stimulated peak increase in ISC: 5 min pre-treatment, apical, UTP 10 µM, concentration-dependent. The procedure:
FRT-hTMEM16Aabc cells were mounted in Ussing chambers in asymmetrical Ringers solutions. The basolateral Ringers contained (in mM): 120 NaCl, 25 NaHCO3, 3.3 KH2PO4, 0.8 K2HPO4, 1.2 CaCl2, 1.2 MgCl2, and 10 glucose. In the apical Ringers solution, NaCl was reduced to 80 mM and 40 mM sodium gluconate was included to establish a Cl^− gradient. The solution osmolarity was between 280 and 300 mosmol kg H2O^−1 and was continuously gassed (5% CO2 in O2; pH 7.4) and maintained at 37°C. Cells were voltage clamped to 0 mV (model EVC4000; WPI) and the short-circuit current (ISC) was measured. Data were recorded using a PowerLab workstation and LabChart software (ADInstruments, Abingdon, Oxon, United Kingdom). TMEM16A blockers were added to the apical side of the epithelium for 5 min before the addition of UTP, that was used to stimulate a TMEM16A-mediated chloride secretory responses.

In series [3] the test system is HBE cells (non-CF). Put plainly: Short-circuit current (ISC) and transepithelial resistance, non-CF HBE. The class given is cell-based, human. Particulars: for Inh172-sensitive ISC / amiloride-sensitive current / magnitude of response to amiloride / forskolin-stimulated current: after compound treatment; for change in transepithelial resistance: vehicle +108 ± 14. The protocol:
HBE cultured at air-liquid interface (ALI) for 14–21 days were mounted in Ussing chambers in symmetrical Ringers solution containing (in mM): 120 NaCl, 25 NaHCO3, 3.3 KH2PO4, 0.8 K2HPO4, 1.2 CaCl2, 1.2 MgCl2, and 10 glucose, and voltage clamped as described above. In some studies, HBE were pre-treated with IL-13 (10 ng/mL; Peprotech, United Kingdom) for 48 h to increase TMEM16A expression levels ([Caputo et al., 2008]). Amiloride (10 μM; apical) was used to block the spontaneous, ENaC-mediated current, whilst UTP (10 μM; apical) and forskolin (10 μM; apical and basolateral) were added to the bath solutions to activate Ca^2+ and cAMP-dependent anion secretory responses, respectively. Inh172 (30 μM; apical and basolateral) was also used to inhibit CFTR function. The TMEM16A blockers were added to the apical side of the Ussing chambers to evaluate effects on each of these currents.

In series [4] the test system is FRT-TMEM16Aabc cells. Put plainly: Intracellular Ca2+ measurement (Calcium6), FRT-TMEM16Aabc cells. It is filed as cell-based. Particulars: 10 min pre-treatment. The procedure:
(§1) CF-HBE cultured at air-liquid interface for 14–21 days were pre-treated with IL-13 (10 ng/mL; 48 h). CF-HBE were then loaded with the Ca^2+-sensitive fluorescent reporter dye, Calcium6 for 120 min at 37°C in Hanks balanced salt solution (HBSS) buffered with 20 mM HEPES (pH 7.4). […] The direct effects of apically administered TMEM16A blockers on [Ca^2+]i as well as effects on the subsequent responses to UTP were measured using a PHERAstar plate reader (BMG Lab Tech, United Kingdom). Equivalent measurements were performed in FRT-TMEM16Aabc cells that had been cultured in 96 well, clear bottom plastic plates and loaded with Calcium6 using the same protocol.

Series [5] concerns CF-HBE cells. The series is described as follows: Intracellular Ca2+ measurement (Calcium6), IL-13 pre-treated CF-HBE at ALI. The class given is cell-based, human. As to conditions: for direct effect on baseline [Ca2+]i: apical addition; for UTP-stimulated elevation of [Ca2+]i: pre-treatment. The protocol: as §1

Like-named read-outs stand apart in the source and are kept apart here.

The term IC50 denotes the concentration that inhibits the measured activity by half. One may read the inhibition as the relative decrease from the control value, in per cent. `CCc1oc2ccccc2c1C(=O)c1cc(Br)c(O)c(Br)c1` [benzbromarone] showed an IC50 in series [1] (IC50 (printed in Figure 1, concentration-response curves), hTMEM16Aabc currents in FRT cells) of 3.05 ± 0.586 µM. The molecule further registered an IC50 in series [1] (IC50, inhibition of TMEM16Aabc currents, assessed at +90 mV, FRT cells) of 3 ± 0.6 µM. For the same molecule, in series [1] (at −90 mV, FRT cells, read-out: IC50, inhibition of TMEM16Aabc currents), the IC50 came out at 1.3 ± 0.3 µM. Also, the inhibition at 30 µM in series [1] (highest concentration tested, 30 µM, [Ca2+]i 415 nM, read-out: inhibition of TMEM16Aabc current) is 96%. Besides, in series [2], the “effect on baseline ISC prior to UTP” value is recorded as “without effect”, the “UTP-stimulated integrated ISC response (AUC)” value is recorded as “attenuated” and the “UTP-stimulated peak increase in ISC” value was “attenuated”. Moreover, in series [3], the “Inh172-sensitive ISC” value is listed as “attenuated”, the “amiloride-sensitive current / magnitude of response to amiloride” value is “attenuated”, the forskolin-stimulated current entry is on record as “attenuated” and the “change in transepithelial resistance” value is “+170 ± 25 Ω cm^2”. Further, in series [3] (apical), the “decline in the baseline ISC” value is reported as 50%. Also, the “UTP-stimulated increase in [Ca2+]i” value in series [4] is given as “significantly attenuated”. In series [5], the “direct effect on baseline [Ca2+]i” value was “immediate and transient increase”; the “UTP-stimulated elevation of [Ca2+]i” value is reported as “attenuated”.

As for `O=C(Nc1ccc([N+](=O)[O-])cc1Cl)c1cc(Cl)ccc1O` [niclosamide], the current reversal potential in series [1] (30 µM, vehicle −12.3 ± 2.0 mV) is listed as −29.8 ± 1.3 mV. Besides, the “effect on TMEM16Aabc currents” value in series [1] (bell-shaped response, [Ca2+]i 415 nM) is reported as “potentiation of currents at concentrations up to 1.1 µM”. The “transient increase in ISC on addition” value in series [2] (10 µM, vehicle 0.0 ± 0.1) was found to be 4.4 ± 0.3 µAcm^-2. Further, the “subsequent attenuation of the baseline current” value in series [2] (10 µM, vehicle −0.3 ± 0.1) is given as −6.7 ± 0.7 µAcm^-2. In series [2], the “UTP-stimulated integrated ISC response (AUC)” value is listed as “attenuated” and the “UTP-stimulated peak increase in ISC” value is recorded as “attenuated”. Moreover, the “reduction in the baseline ISC” value in series [3] (10 µM, within 30 min of addition) is recorded as about 90%. For the same molecule, in series [3], the “Inh172-sensitive ISC” value is given as “attenuated”, the “amiloride-sensitive current / magnitude of response to amiloride” value was “attenuated”, the forskolin-stimulated current entry is reported as “attenuated” and the “change in transepithelial resistance” value was −174 ± 19 Ω cm^2. The “UTP-stimulated increase in [Ca2+]i” value in series [4] is reported as “significantly attenuated”. Also, in series [5], the “direct effect on baseline [Ca2+]i” value is “immediate and transient increase”; the “UTP-stimulated elevation of [Ca2+]i” value is “attenuated”.
